For one data set, the system named is EC219 cells. As to the kind of experiment: Extracellular release of the γ-secretase inhibitor from prodrugs by EC219 endothelial cells. It counts as in vitro ADME, rat. The note with it: HEK293, 215/F2, HK2 and EC219 cells, 20 μM in PBS, 19 h. On the procedure:
FIG. 2A. Extracellular release of amine-SecrI (11a) metabolites for α-Glu- and γ-Glu-secretase inhibitor prodrugs. The prodrugs were added to the cells for 19 h, then the supernatants were harvested and analyzed for SecrI (8), amine-SecrI (11a), the prodrugs 13a, 13b, 15a, 15b and (for 13a, 15a) also the correponding deacetylated metabolites.
Cpd added: 20 μM in PBS, 19 h incubation. SecrI (8) is stable when added to cells for 19 h; free SecrI (8) was never detected from any prodrug.
The preparation and characterization of rat brain-derived EC219 endothelial cells have been described in Juillerat-Jeanneret, L. et al. In Vitro Cell. Dev. Biol. 1992, 28A, 537-543. These cells express high levels of APA and γ-GT activities and can be used for determining kinetics in living cells, and were chosen as APA- and γ-GT-positive representative cell models. EC219 cells were grown in DMEM medium containing 1 g/l glucose, 10% heat-inactivated fetal calf serum (FCS, EuroClone, UK) supplemented with 100 U/mL penicillin and 100 μg/mL streptomycin (P/S) on uncoated cell culture plastic ware. The HEK293 and HK2 human kidney cells are available from the ATCC (American Tissue Culture Collection, Manassas, Va., USA). HEK293 cells were grown on uncoated cell culture plastic ware in Iscove modified Dulbecco medium (IMDM, Life Technologies) containing 10% FCS and P/S. HK2 cells were grown on uncoated cell culture plastic ware in DMEM/F-12 GlutaMAX medium (Gibco) containing 5% FCS, P/S, 1% ITS (1.0 mg/ml bovine insulin, 0.55 mg/ml human transferrin and 0.5 μg/ml sodium selenite, Sigma-Aldrich) and 5 ng/ml hydrocortisone. […] Then 75 μl of supernatant from each well was removed and the luciferase activity was determined by adding 25 μl of Steady-Glo luciferase assay reagent (Promega).
A first screen of the different γ-secretase prodrugs was performed in vitro to determine the cleavage rate of each compound and ex-vivo in mouse kidney tissues. Extracellular release of the γ-secretase inhibitor from prodrugs by human kidney cells (HEK293, HEK293-derived Notch-reporter 215/F2 cells28,39 and HK2 cells) as well as the rat brain-derived EC219 endothelial cells which express very high levels of APA and γ-GT activities were evaluated for liberating active inhibitors SecrI (8) or amine-SecrI (11a) (FIG. 2A).
All samples were analyzed using protein precipitation followed by LC-MS/MS analysis. […] One μL of the supernatant was analyzed by LC/MS. […]

The target of data set [1] is Notch signal transduction pathway. The data set can be described thus: In vitro Notch signal transduction pathway activity assay (DR215/F2 luciferase reporter). The format is cell-based, human. The settings on record: for IC50 for blockade of the Notch pathway, range in words: DR215/F2 cell reporter assay; for IC50: Homo sapiens, 215/F2 reporter cell line, 19 h, mean of at least 3 experiments. On the procedure: The compounds were dissolved in dimethyl sulfoxide (DMSO) at 10 mM stock solution, aliquoted and stored at −4° C. until use, then diluted in PBS or cell culture medium. In the experimental settings, controls containing increasing concentrations of DMSO, corresponding to the amount of DMSO of the diluted compounds were always included. For in vivo experiments, the compounds were dissolved in 0.9% NaCl, incubated 30 min at 40° C. and sonicated for 5 min.
The requirement of proteolytic activation of the prodrugs to inhibit Notch cleavage by the γ-secretase, was investigated using a reporter assay (Table 3). The DR215/F2 cell line expresses a reporter construct designed to monitor the activity of the Notch signal transduction pathway. The DR215/F2 cell line 39 carries two transgenes: the firefly luciferase reporter gene expressed under the control of the Gal4 promoter and the human Notch1 activator gene fused with the yeast Gal4 transcription factor. This assay confirmed that the prodrugs were able to inhibit γ-secretase and the activation of the Notch pathway. The DR215/F2 cell reporter assay was also used to determine the IC50 for blockade of the Notch pathway by all the compounds designed and prepared.
The values were determined using the 215/F2 reporter cell line for Notch activation by the γ-secretase. All values are the mean of at least 3 experiments.
The preparation and characterization of rat brain-derived EC219 endothelial cells have been described in Juillerat-Jeanneret, L. et al. In Vitro Cell. Dev. Biol. 1992, 28A, 537-543. These cells express high levels of APA and γ-GT activities and can be used for determining kinetics in living cells, and were chosen as APA- and γ-GT-positive representative cell models. EC219 cells were grown in DMEM medium containing 1 g/l glucose, 10% heat-inactivated fetal calf serum (FCS, EuroClone, UK) supplemented with 100 U/mL penicillin and 100 μg/mL streptomycin (P/S) on uncoated cell culture plastic ware. The HEK293 and HK2 human kidney cells are available from the ATCC (American Tissue Culture Collection, Manassas, Va., USA). HEK293 cells were grown on uncoated cell culture plastic ware in Iscove modified Dulbecco medium (IMDM, Life Technologies) containing 10% FCS and P/S. HK2 cells were grown on uncoated cell culture plastic ware in DMEM/F-12 GlutaMAX medium (Gibco) containing 5% FCS, P/S, 1% ITS (1.0 mg/ml bovine insulin, 0.55 mg/ml human transferrin and 0.5 μg/ml sodium selenite, Sigma-Aldrich) and 5 ng/ml hydrocortisone. The human HEK293-derived DR215/F2 embryonic kidney cell line, stably transfected with pFR Luc and APP-Notch Gal (plasmid DR215) as described in WO 2006/061136 A2 and Brockhaus, M. Neuroreport 1998 9, 1481-1486, were maintained using IMDM with 10% FCS supplemented with P/S and kept under double-selection with 150 μg/ml G-418 and 50 μg/ml hygromycin B on coated (1:100 Poly-L-lysine) cell culture plastic ware. In this assay, the Notch-Gal4 protein is bound to the cell membrane via its trans-membrane domain. The Notch intracellular domain is released by proteolytic cleavage mediated by the γ-secretase and moves to the cell nucleus where it activates the reporter luciferase gene transcript. Inhibition of γ-secretase thus decreases luciferase activity. Briefly, cultures were grown in 96-well microplates to 80% confluence; the cells were then washed in PBS and exposed to decreasing concentrations of the γ-secretase-inhibitor analogues in complete IMDM culture medium without red phenol at 37° C. for 19 h. Then 75 μl of supernatant from each well was removed and the luciferase activity was determined by adding 25 μl of Steady-Glo luciferase assay reagent (Promega).

The values that follow come from patent US10632127B2, “Targeted notch pathway inhibitors” (Hoffmann-La Roche Inc., priority 2015, dated 2020).

Usually IC50 stands for the concentration at which inhibition is half-maximal. The low end stands for greater potency in that assay, the high end for weaker potency in that assay.

Consider `CC(=O)N[C@@H](CCC(=O)NCCNC(=O)OCCN1C(=O)[C@@H](NC(=O)[C@@](C)(O)C(=O)NCC(F)(F)C(F)(F)F)[C@@H](C)Oc2ccc(F)cc21)C(=O)O` [Compound 13a, (S)-2-acetamido-5-(2-((2-((2R,3S)-7-fluoro-3-((S)-2-hydroxy-2-methyl-3-oxo-3-(2,2,3,3,3-pentafluoropropylamino)propanamido)-2-methyl-4-oxo-3,4-dihydrobenzo[b][1,4]oxazepin-5(2H)-yl)ethoxy)carbonylamino)ethylamino)-5-oxopentanoic acid], for which the “hydrolysis by γ-GT” value in the data set with EC219 cells is “not hydrolyzed by γ-GT”. In data set [1], the “IC50 for blockade of the Notch pathway, range in words” value (shortened to “IC50 for blockade”) is “μM range” and inhibition was half-maximal at 2880 nM (IC50).
As for `CC(=O)N[C@@H](CCC(=O)O)C(=O)NCCNC(=O)OCCN1C(=O)[C@@H](NC(=O)[C@@](C)(O)C(=O)NCC(F)(F)C(F)(F)F)[C@@H](C)Oc2ccc(F)cc21` [Compound 15a, (S)-4-acetamido-5-(2-((2-((2R,3S)-7-fluoro-3-((S)-2-hydroxy-2-methyl-3-oxo-3-(2,2,3,3,3-pentafluoropropylamino)propanamido)-2-methyl-4-oxo-3,4-dihydrobenzo[b][1,4]oxazepin-5(2H)-yl)ethoxy)carbonylamino)ethylamino)-5-oxopentanoic acid], the “substrate for APA” value with EC219 cells is listed as “not a substrate for this enzyme”. Further, in data set [1], the “IC50 for blockade” value is recorded as “high nM range” and the IC50 is 625 nM.
Take `C[C@H]1Oc2ccc(F)cc2N(CCOC(=O)NCCN)C(=O)[C@H]1NC(=O)[C@@](C)(O)C(=O)NCC(F)(F)C(F)(F)F.Cl` [Compound 11a, 2-((2R,3S)-7-Fluoro-3-((S)-2-hydroxy-2-methyl-3-oxo-3-(2,2,3,3,3-pentafluoropropylamino)propanamido)-2-methyl-4-oxo-3,4-dihydrobenzo[b][1,4]oxazepin-5(2H)-yl)ethyl 2-aminoethylcarbamate hydrochloride]: in data set [1], the “IC50 for blockade” value is given as “low nanomolar range” and the IC50 worked out at 45.6 nM.
For the compound `C[C@H]1Oc2ccc(F)cc2N(CCO)C(=O)[C@H]1NC(=O)[C@@](C)(O)C(=O)NCC(F)(F)C(F)(F)F` [Compound 8, N-[(6R,7S)-2-Fluoro-9-(2-hydroxy-ethyl)-6-methyl-8-oxo-6,7,8,9-tetrahydro-5-oxa-9-aza-benzocyclohepten-7-yl]-2-(S)-hydroxy-2-methyl-N′-(2,2,3,3,3-pentafluoro-propyl)-malonamide], the “stability when added to cells” value with EC219 cells is recorded as “stable”. Besides, in data set [1], the “IC50 for blockade” value was “low nanomolar range” and it took 4.4 nM to reach half-maximal inhibition (IC50).
